# Molecular target: T1, aromatase (Rattus norvegicus, UniProt P22443)
# T1 construct: ovarian microsomes are obtained from rats treated with pregnant mares serum gonadotropin; from tissue; host or cells: ovarian microsomes from rats treated with pregnant mares serum gonadotropin
# T1 sequence (P22443 1-508): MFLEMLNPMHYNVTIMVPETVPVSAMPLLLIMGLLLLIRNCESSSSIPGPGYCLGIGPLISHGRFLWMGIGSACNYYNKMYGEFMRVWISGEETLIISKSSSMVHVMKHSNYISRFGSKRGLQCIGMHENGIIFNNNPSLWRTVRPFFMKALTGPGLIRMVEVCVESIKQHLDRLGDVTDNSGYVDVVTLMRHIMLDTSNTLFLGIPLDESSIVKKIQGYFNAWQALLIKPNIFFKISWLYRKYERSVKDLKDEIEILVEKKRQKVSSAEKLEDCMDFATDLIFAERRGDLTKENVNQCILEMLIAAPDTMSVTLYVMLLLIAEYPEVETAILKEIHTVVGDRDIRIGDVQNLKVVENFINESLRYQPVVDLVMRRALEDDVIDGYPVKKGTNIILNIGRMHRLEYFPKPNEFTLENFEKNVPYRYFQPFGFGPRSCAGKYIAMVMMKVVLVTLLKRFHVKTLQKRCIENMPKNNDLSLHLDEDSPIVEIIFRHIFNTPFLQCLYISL
# Assay: Aromatase inhibition in the rat ovarian microsome assay
# Assay type: biochemical
# Settings: rat ovarian microsomes; substrate (androstenedione) concentration 0.1 μM
# Method: In this test system, ovarian microsomes are obtained from rats treated with pregnant mares serum gonadotropin. Test compounds are added to reaction vials containing 0.1 μM 4-androstene-3,17-dione, 100,000 dpm 1,2[^3 H]-androstenedione, the microsomes and a NADPH generating system. The concentrations of the inhibitors tested ranged between 0.005 and 10 μM.
compound,measurement,value
"c1ccc2c(c1)CCc1ccccc1C2n1ccnc1 [1-(10,11-dihydro-5H--dibenzo-[a,d]cyclohepten-5-yl)-1H--imidazole nitrate]",EC50,2 µM

# — patent US4757082A, “Method of inhibiting aromatase” (Eli Lilly and Company, priority 1984, dated 1988)
